Structures can show the parent of a compound that is named as a salt.
What follows are molecules tested against T1, ABCG2 (Homo sapiens, UniProt Q9UNQ0) (assay: Bioluminescence imaging (BLI) assay in HEK293/ABCG2/fLuc cells). Conditions: not given.
T1 sequence (Q9UNQ0 1-655): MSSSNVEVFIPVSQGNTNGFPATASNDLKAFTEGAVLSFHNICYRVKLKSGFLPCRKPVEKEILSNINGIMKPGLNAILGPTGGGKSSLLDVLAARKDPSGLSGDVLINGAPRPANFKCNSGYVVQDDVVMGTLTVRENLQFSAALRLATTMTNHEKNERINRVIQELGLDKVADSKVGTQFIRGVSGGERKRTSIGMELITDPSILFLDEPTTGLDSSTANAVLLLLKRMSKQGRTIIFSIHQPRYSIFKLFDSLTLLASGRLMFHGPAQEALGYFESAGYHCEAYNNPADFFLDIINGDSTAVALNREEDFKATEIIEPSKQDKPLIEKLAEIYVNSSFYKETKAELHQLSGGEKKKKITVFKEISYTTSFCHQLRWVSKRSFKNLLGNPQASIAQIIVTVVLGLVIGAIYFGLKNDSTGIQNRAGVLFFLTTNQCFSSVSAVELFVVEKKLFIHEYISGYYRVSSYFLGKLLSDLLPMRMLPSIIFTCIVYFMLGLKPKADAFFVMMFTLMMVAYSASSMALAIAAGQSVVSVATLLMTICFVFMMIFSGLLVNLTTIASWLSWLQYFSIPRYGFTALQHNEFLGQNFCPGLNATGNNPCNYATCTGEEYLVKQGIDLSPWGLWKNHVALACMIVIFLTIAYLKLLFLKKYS
Method: HEK293/ABCG2/fLuc cells were plated into 96-well plates at a density of 4×10^4 cells/100 μL per well and were allowed to attach overnight. The following day, 10 μL of each compound or the control solvent was transferred from a compound library in a 96-well, high-throughput format into the wells using a multichannel pipette. […] Images were taken every 5 minutes for ˜1 h. Light output from each well was quantified at the 40 min time point after initiation of imaging, and the signal-to-background (S/B) ratio of the light output from each compound divided by that from the control well was calculated. This S/B ratio serves as an indicator of the potency of ABCG2 inhibition, the mechanism by which BLI signal is enhanced.
Images were taken every 5 min for ˜1 h, and light output from each well at the 40 min time point was chosen for quantification. The SB ratio of the light output from each compound divided by that from the control well was calculated. This ratio was used as an indicator of the potency of ABCG2 inhibition, the mechanism by which BLI signal is enhanced.
The BLI signal-enhancing effect of selected ABCG2 inhibitors was evaluated within the range of 0.001 μM-100 μM, with HEK293/ABCG2/fLuc cells and 50 μg/mL D-luciferin. The data obtained at 40 min after imaging commencement were chosen arbitrarily to be plotted (FIG. 3).
`COc1cc2nc(N3CCN(C(=O)C4COc5ccccc5O4)CC3)nc(N)c2cc1OC` (stereo not drawn) [doxazosin mesylate] was tested, and the IC50 was 8 µM.
With `Cc1cc(C(C)(C)CC(C)(C)C)ccc1OCCOCC[N+](C)(C)Cc1ccccc1.[Cl-]` [methylbenzethonium chloride] the “Fold (BLI enhancement, S/B ratio over control)” value was 2.1 fold.
`FC(F)(F)c1ccc2c(c1)N(CCCN1CCN(CCCl)CC1)c1ccccc1S2` [fluphenazine N-mustard] was tested, and the “Fold (BLI enhancement, S/B ratio over control)” value was 3.6 fold.

Same assay, conditions: Table 2; HEK293/ABCG2/fLuc cells, compound approximately 17 μM, ~50 μg/mL D-luciferin, 40 min time point
For `Cc1c2ccncc2c(C)c2c1[nH]c1ccccc12` [ellipticine], the “Fold (BLI enhancement, S/B ratio over control)” value was 2.5 fold.
In the case of ivermect n, the “Fold (BLI enhancement, S/B ratio over control)” value is reported as 4.3 fold.
With `O=C(Nc1ccccc1)c1ccccc1O` [salicylanilide] the “Fold (BLI enhancement, S/B ratio over control)” value was 2.2 fold.
For `O=C(O)CCCc1ccccc1` [phenylbutyric acid], the “Fold (BLI enhancement, S/B ratio over control)” value was 2.1 fold.
For `COc1ccc(CCN(C)CCCC(C#N)(c2cc(OC)c(OC)c(OC)c2)C(C)C)cc1OC` (stereo not drawn) [gallopamil], the “Fold (BLI enhancement, S/B ratio over control)” value was 2.4 fold.
With antimycin the “Fold (BLI enhancement, S/B ratio over control)” value was 2.3 fold.
With `CN1[C@@H]2CC[C@H]1C[C@@H](OC(c1ccccc1)c1ccccc1)C2.CS(=O)(=O)O` [benztropin Methane-] the “Fold (BLI enhancement, S/B ratio over control)” value was 2.0 fold.
`CC[C@H]1/C=C/C=C/C[C@@H](C)[C@H](O)[C@@](C)(O)C(=O)[C@@H](C)[C@H](O)[C@@H](C)C(=O)[C@@H](C)[C@H](O)[C@@H](C)/C=C/C(=O)O[C@@H]2[C@H](C)[C@H](CC1)O[C@]1(CC[C@H](C)[C@H](C[C@@H](C)O)O1)[C@H]2C` [oligomycin] was tested, and the “Fold (BLI enhancement, S/B ratio over control)” value was 5.0 fold.

Same assay, conditions: Table 4; approximately 17 μM, 40 min time point
In the case of `CC[C@H]1/C=C/C=C/C[C@@H](C)[C@H](O)[C@@](C)(O)C(=O)[C@@H](C)[C@H](O)[C@@H](C)C(=O)[C@@H](C)[C@H](O)[C@@H](C)/C=C/C(=O)O[C@@H]2[C@H](C)[C@H](CC1)O[C@]1(CC[C@H](C)[C@H](C[C@@H](C)O)O1)[C@H]2C` [oligomycin], the “Fold (BLI enhancement), previously unknown compounds” value (“Fold … previously unknown compounds” below) is reported as 5.0 fold.

Same assay, conditions: human
For `CC(C)C[C@H]1C(=O)N2CCC[C@H]2[C@]2(O)O[C@](NC(=O)[C@@H]3C=C4c5cccc6[nH]c(Br)c(c56)C[C@H]4N(C)C3)(C(C)C)C(=O)N12` [bromocriptine mesylate], the “Fold (BLI enhancement, S/B ratio over control)” value was 2.1 fold.
For `CC[C@@]1(O)C[C@H](O[C@H]2C[C@H](N(C)C)[C@H](O)[C@H](C)O2)c2c(cc3c(c2O)C(=O)c2c(O)cccc2C3=O)[C@H]1C(=O)OC` [aklavine hydrochloride], the “Fold (BLI enhancement, S/B ratio over control)” value was 2.5 fold.
`CN1C[C@H](C(=O)N[C@]2(C)O[C@@]3(O)[C@@H]4CCCN4C(=O)[C@H](Cc4ccccc4)N3C2=O)C[C@@H]2c3cccc4[nH]cc(c34)C[C@H]21` [dihydroergotamine mesylate] was tested, and the “Fold … previously unknown compounds” value was 9.6 fold and the “Fold (BLI enhancement, S/B ratio over control)” value was 9.6 fold.
In the case of `CC1=NCCc2c1[nH]c1cc(O)ccc21.Cl` [harmalol hydrochloride], the “Fold (BLI enhancement, S/B ratio over control)” value is reported as 2.9 fold.
For `COc1ccc2c(c1)[nH]c1c(C)nccc12` [harmine], the “Fold (BLI enhancement), known compounds” value was 8.9 fold and the “Fold (BLI enhancement, S/B ratio over control)” value was 8.9 fold.
`CC[C@@]1(O)C[C@H](O[C@H]2C[C@H](N(C)C)[C@H](O[C@H]3C[C@H](O)[C@H](O[C@H]4CCC(=O)[C@H](C)O4)[C@H](C)O3)[C@H](C)O2)c2c(cc3c(c2O)C(=O)c2c(O)cccc2C3=O)[C@H]1C(=O)OC` [aclarubicin] was tested, and the “Fold (BLI enhancement, S/B ratio over control)” value was 3.5 fold.

Same assay, conditions: human, 40 min, 17 μM
For `COc1ccc(-c2cc(=O)c3c(O)c(OC)c(OC)cc3o2)cc1O` [eupatorin], the “Fold … previously unknown compounds” value was 5.6 fold and the “Fold (BLI enhancement, S/B ratio over control)” value was 5.6 fold.
In the case of `COc1cc2nc(N3CCN(C(=O)C4COc5ccccc5O4)CC3)nc(N)c2cc1OC` (stereo not drawn) [doxazosin mesylate], the “BLI signal enhancement” value is reported as 16 fold.
In the case of `O=c1cc(-c2ccccc2)oc2cc(O)c(O)cc12` [6,7-dihydroxyflavone], the “Fold (BLI enhancement, S/B ratio over control)” value is reported as 2.7 fold and the “fold (BLI enhancement), additional previously known ABCG2 inhibitors” value is reported as 2.7 fold.
For `CC(C)(O/N=C(\C(=O)N[C@@H]1C(=O)N2C(C(=O)[O-])=C(C[n+]3ccccc3)CS[C@H]12)c1csc(N)n1)C(=O)O` [ceftazidime], the “Fold (BLI enhancement, S/B ratio over control)” value was 2.5 fold.
For `CCCCCNC(=N)N/N=C/c1c[nH]c2ccc(OC)cc12` [tegaserod maleate], the “Fold (BLI enhancement, S/B ratio over control)” value was 3.1 fold.
With `Cc1nccn1CC1CCc2c(c3ccccc3n2C)C1=O` (stereo not drawn) [ondansetron hydrochloride] the “Fold (BLI enhancement, S/B ratio over control)” value was 2.7 fold.
With `O=c1c(O)c(-c2ccc(O)cc2)oc2cc(O)cc(O)c12` [kaempferol] the “Fold (BLI enhancement, S/B ratio over control)” value was 4.3 fold.
`COc1c2occc2c(OC)c2c(=O)cc(C)oc12` [khellin] was tested, and the “Fold (BLI enhancement, S/B ratio over control)” value was 3.4 fold.
In the case of `O=C(O)c1cc(O)c2c(c1)C(=O)c1cccc(O)c1C2=O` [rhein], the “Fold (BLI enhancement, S/B ratio over control)” value is reported as 3.1 fold.
For `CC(=O)OCC(=O)[C@@]1(O)[C@H](C)C[C@H]2[C@@H]3CCC4=CC(=O)C=C[C@]4(C)[C@@]3(F)[C@@H](O)C[C@@]21C` [dexamethasone acetate], the “Fold (BLI enhancement, S/B ratio over control)” value was 2.2 fold.
With `CC(C)(C)c1ccc(C(O)CCCN2CCC(C(O)(c3ccccc3)c3ccccc3)CC2)cc1` (stereo not drawn) [terfenadine] the “Fold (BLI enhancement, S/B ratio over control)” value was 4.2 fold.
With `COc1ccccc1OCCNCC(O)COc1cccc2[nH]c3ccccc3c12` (stereo not drawn) [carvedilol] the “Fold (BLI enhancement, S/B ratio over control)” value was 10.0 fold.
In the case of `Cn1c(=O)c2[nH]c(C3CCCC3)nc2n(C)c1=O` [8-cyclopentyltheophylline], the “Fold (BLI enhancement, S/B ratio over control)” value is reported as 2.9 fold.
With `CCCCC(CC)CNC(=N)NC(=N)NCCCCCCNC(=N)NC(=N)NCC(CC)CCCC` (stereo not drawn) [alexidine hydrochloride] the “Fold (BLI enhancement, S/B ratio over control)” value was 3.1 fold.
`COc1ccc(C(=O)NCc2ccc(OCCN(C)C)cc2)cc1OC` [itopride hydrochloride] was tested, and the “Fold (BLI enhancement, S/B ratio over control)” value was 2.2 fold.
In the case of `COC(=O)C1=C(C)NC(C)=C(C(=O)OCC(C)C)C1c1ccccc1[N+](=O)[O-]` (stereo not drawn) [nisoldipine], the “Fold (BLI enhancement, S/B ratio over control)” value is reported as 3.2 fold.
`O=C1C[C@@H](c2ccc(O)cc2)Oc2cc(O)cc(O)c21` [naringenin] was tested, and the “BLI signal enhancement” value was 1.9 fold and the “fold (BLI enhancement), additional previously known ABCG2 inhibitors” value was 1.9 fold.
With `OCCN1CCN(CCCN2c3ccccc3Sc3ccc(C(F)(F)F)cc32)CC1` [fluphenazine] the “Fold (BLI enhancement, S/B ratio over control)” value was 2.0 fold.
With `C=CC1=C(C(=O)O)N2C(=O)[C@@H](NC(=O)/C(=N\OCC(=O)O)c3csc(N)n3)[C@H]2SC1` [citropen] the “Fold (BLI enhancement, S/B ratio over control)” value was 4.3 fold.
In the case of `CC(C)c1nc(N(C)S(C)(=O)=O)nc(-c2ccc(F)cc2)c1/C=C/[C@@H](O)C[C@@H](O)CC(=O)O` [rosuvastatin], the “Fold (BLI enhancement, S/B ratio over control)” value is reported as 3.9 fold.
With `COc1ccc2c(c1OC)C(=O)O[C@@H]2[C@H]1c2c(cc3c(c2OC)OCO3)CCN1C` [noscapine hydrochloride] the “Fold (BLI enhancement, S/B ratio over control)” value was 2.3 fold.
`CCc1nn(CCCN2CCN(c3cccc(Cl)c3)CC2)c(=O)n1CCOc1ccccc1` [nefazodone hydrochloride] was tested, and the “Fold (BLI enhancement, S/B ratio over control)” value was 2.6 fold.
`CC(=O)[C@H]1CC[C@H]2[C@@H]3C[C@H](C)C4=CC(=O)CC[C@]4(C)[C@H]3[C@@H](O)C[C@]12C` [medrysone] was tested, and the “Fold (BLI enhancement, S/B ratio over control)” value was 2.3 fold.
In the case of `COc1cc2ncnc(Nc3ccc(F)c(Cl)c3)c2cc1OCCCN1CCOCC1` [gefitinib], the “Fold (BLI enhancement), known compounds” value is reported as 19.0 fold and the “Fold (BLI enhancement, S/B ratio over control)” value is reported as 19.0 fold.
For `CCCCCCn1c(=O)c2c(ncn2C)n(C)c1=O` [pentifylline], the “Fold (BLI enhancement, S/B ratio over control)” value was 3.8 fold.
In the case of `Cc1c(-c2cnccn2)ssc1=S` [oltipraz], the “Fold (BLI enhancement, S/B ratio over control)” value is reported as 3.2 fold.
`CCC(=O)O[C@]1(C(=O)CCl)[C@@H](C)C[C@H]2[C@@H]3CCC4=CC(=O)C=C[C@]4(C)[C@@]3(F)[C@@H](O)C[C@@]21C` [clobetasol propionate] was tested, and the “Fold (BLI enhancement, S/B ratio over control)” value was 3.3 fold.
For `O=c1cc(-c2ccccc2)oc2cc(O)cc(O)c12` [chrysin], the “Fold (BLI enhancement, S/B ratio over control)” value was 2.3 fold and the “fold (BLI enhancement), additional previously known ABCG2 inhibitors” value was 2.3 fold.
For `COc1ccc2cc1Oc1ccc(cc1)C[C@H]1c3c(cc4c(c3Oc3cc5c(cc3OC)CCN(C)[C@@H]5C2)OCO4)CCN1C` [cepharanthine], the “Fold (BLI enhancement, S/B ratio over control)” value was 2.1 fold.

Source: patent US20150148256A1, “BIOLUMINESCENCE IMAGING-BASED SCREENING ASSAY AND INHIBITORS OF ABCG2” (THE JOHNS HOPKINS UNIVERSITY, priority 2008, published 2015)
